Measurements published in patent US6930103B2, “Use of vasopeptidase inhibitors in the treatment of metabolic diseases, nephropathy and advanced glycation end-product associated diseases” (Aventis Pharma Deutschland GmbH, priority 2002, dated 2005).

How the values were obtained:
Wistar rats = test: Albumin and creatinine excretion in Wistar rats (non-diabetic nephropathy); type: in vivo, rat; details: for Albumin/Creatinine: Wistar rats, start at age 6 months, mean
Method: The albumin and creatinine excretion in Wistar rats was determined. One group was left untreated, one was treated with the ACE/NEP inhibitor of formula (II-B) and one group was treated with the ACE inhibitor ramipril. Wistar rats are non-diabetic and develop proteinuria and structural kidney damage during adult life. Wistar rats are therefore a model for non-diabetic nephropathy. [table]

[1] = tested on: Zucker Diabetic Fatty (ZDF) Rats (ZDF Gmi fa/fa); test: Urinary excretion of albumin and creatinine in ZDF rats treated from 10 to 37 weeks of age; type: in vivo, rat; details: for Urine excretion Albumin / Urine excretion Albumin/Creatinine: ZDF rats, mean
Method: (§1) The protein and creatinine excretion in the urine of male Zucker Diabetic Fatty (ZDF) Rats (ZDF Gmi fa/fa) and heterozygous control animals (ZDF Gmi −/+) of 10, 17, 27 and 37 weeks age was determined. In further groups, diabetic rats were chronically given either ramipril (1 mg/kg/day, in drinking water) or a compound of formula (II-B) (30 mg/kg/day, in food) over a period from 10 to 37 weeks. The animals were sacrificied after 37 weeks, and their kidneys examined histologically.

Goto-Kakizaki (GK) rats = test: Albumin and creatinine excretion in Goto-Kakizaki (GK) rats; type: in vivo, rat; details: start at age 6 months, mean
Method: The albumin and creatinine excretion in Goto-Kakizaki (GK) rats was determined. GK rats are a model for Type II diabetes. One group was left untreated, one was treated with the ACE/NEP inhibitor of formula (II-B) and one group was treated with the ACE inhibitor ramipril. [table]

ZDF rats [2] = test: RP-HPLC analysis of CML in kidney and heart of ZDF rats; type: in vivo, rat; details: for mean CML conc.: RP-HPLC, ZDF Placebo = 100
Method: Kidney AGE values were determined by Dot blot analysis (Stracke et al., Exp. Clin. Endocrinol. Diabets 2002, 109, 330-336) and Reversed-phase high performance liquid chromatography or RP-HPLC (Drusch et al., Food Chem. 1999, 65, 547-553).
[…] Two animals of each group were analyzed. Grinding of the kidney and heart was performed in liquid nitrogen using a freezer mill (Freezer 6750, C3 Analysetechnik GmbH). Hydrolysis of the organ samples was performed with 6 M hydrochloric acid (HCl) at 110° C. for 12 hours. Sample treatment with o-phthaldialdehyde (OPA) and RP-HPLC was performed as described in Drusch et al., Food Chem. 1999, 65, 547-553.

[3] = tested on: isolated aortic rings of rabbits; test: Relaxation of aortic rings by acetylcholine in rabbits fed an atherogenic diet; type: in vivo, White New Zealand rabbits; details: for Relaxation of aortic rings by acetylcholine: varied diet rabbits, mean ± SEM
Source text: It was shown in the atherogenic rabbit model (White New Zealand rabbits were fed with 0.25% cholesterol plus 3% coconut oil) that even a short 6 week period of an atherogenic diet leads to sustained endothelial dysfunction, even though the animals received a normal diet for 3 months thereafter. […] The endothelium-dependent relaxation of isolated aortic rings of rabbits as well as the release of nitric oxide and superoxide from endothelial cells serve as measures of endothelial dysfunction. […] (II-B) [table]

fat ZDF rats = test: Histological examination of kidneys of ZDF rats after 6 months treatment; type: in vivo, rat; set-up: Armanni-Ebstein cells MEAN SEVERITY / Glomerulosclerosis MEAN SEVERITY / Atrophy: renal tubule MEAN SEVERITY / Casts: renal tubule MEAN SEVERITY: scale not given here
Method: as §1
In the attached tables a summary of the findings on the kidneys after a treatment period of 6 months is listed.

ZDF rats [4] = test: Urinary albumin/creatinine in ZDF rats, treatment starting at an animal age of 6 months; type: in vivo, rat; details: start at age 6 months, mean
[5] = tested on: Zucker diabetic fatty rats; test: HbA1c analysis in ZDF rats; type: in vivo, rat; details: for HbA1c, mean: ZDF rats
Method: (§2) Blood glucose and HbA1c was measured in 10- and 17-week-old male Zucker diabetic fatty rats (Genetic Model Inc.), control rats (Genetic Model Inc.) and male ZDF rats treated for seven weeks with 30 mg/kg/d of compound (II-B), 35 mg/kg/d of compound (III-B) and 1 mg/kg/d ramipril. Fifteen animals were analyzed in each group.
To obtain blood samples for HbA1c determination, disposable capillary tubes were used. HbA1c values were obtained from hemolyzed whole blood samples with a turbidimetric inhibition immunoassay (Tina-quant, Roche Diagnostics GmbH) and hemoglobin concentrations were determined in a second channel on an automated clinical chemistry analyzer (Boehringer Mannheim/Hitachi 912). HbA1c concentration in percent were calculated from HbA1c to total hemoglobin.

[6] = tested on: Zucker diabetic fatty rats; test: Blood glucose analysis in ZDF rats; type: in vivo, rat; details: for blood glucose, mean: ZDF rats
Method: as §2
Blood samples for glucose determination were obtained from ZDF rats using standard sampling tubes. Within 30 minutes of collection, samples were separated from the cells by centrifugation. Quantitative determination of blood glucose in serum was performed with an enzymatic in vitro test from Roche Diagnostics GmbH (Gluco-quant, Roche Diagnostics GmbH) using the automated clinical chemistry analyzer Boehringer Mannheim/Hitachi 912.

[7] = kidneys, male fat ZDF rats, terminal sacrifice
[8] = kidneys, male fat ZDF rats, terminal sacrifice, examined: D1 9, D4 8
[9] = kidneys, male fat ZDF rats, terminal sacrifice, examined: D1 9, D4 8, listed as compound (II-B)
[10] = age 10 weeks (start of treatment)
[11] = age 17 weeks (treated for seven weeks)

- Dilatation: pelvis GRADE 2: number of animals (fat ZDF rats; rat, in vivo): 1
- Dilatation: pelvis GRADE 3: number of animals (fat ZDF rats; rat, in vivo): 5
- Dilatation: pelvis GRADE 4: number of animals (fat ZDF rats; rat, in vivo): 1
- Dilatation: pelvis MEAN SEVERITY (fat ZDF rats; rat, in vivo): 3.0
Structure (SMILES): CC(=O)S[C@H](C(=O)N[C@H]1Cc2ccccc2[C@H]2CCC[C@@H](C(=O)O)N2C1=O)C(C)C [cpd. (II-B)]
- Albumin/Creatinine (Wistar rats; 6 weeks treatment): 18.07 mg/mmol
- Albumin/Creatinine (Wistar rats; 12 weeks treatment): 21.21 mg/mmol
- Albumin/Creatinine (Wistar rats; Basal): 130.45 mg/mmol
- Nephroprotective effect compared with ramipril as determined by the extent of proteinuria (Wistar rats; non-diabetic model, in words): significantly higher nephroprotective effect than ramipril
- Urine excretion Albumin ([1]; week 0 of treatment): 0.27 mg/kg/h
- Urine excretion Albumin/Creatinine ([1]; week 0 of treatment): 48.56 mg/mmol
- Urine excretion Albumin ([1]; week 7 of treatment): 0.09 mg/kg/h
- Urine excretion Albumin/Creatinine ([1]; week 7 of treatment): 14.30 mg/mmol
- Urine excretion Albumin ([1]; week 17 of treatment): 0.41 mg/kg/h
- Urine excretion Albumin/Creatinine ([1]; week 17 of treatment): 44.63 mg/mmol
- Urine excretion Albumin ([1]; week 27 of treatment): 1.39 mg/kg/h
- Urine excretion Albumin/Creatinine ([1]; week 27 of treatment): 152.71 mg/mmol
- Effect relative to the ACE inhibitor ramipril ([1]; nephroprotective effect, compared with ramipril): 6-8 fold
- Albumin/Creatinine (Goto-Kakizaki (GK) rats; 6 weeks treatment): 17.70 mg/mmol
- Albumin/Creatinine (Goto-Kakizaki (GK) rats; 12 weeks treatment): 24.28 mg/mmol
- Albumin/Creatinine (Goto-Kakizaki (GK) rats; Basal): 103.95 mg/mmol
- mean CML conc. (ZDF rats [2]; hearts of 17-week-old ZDF rats): 26%
- mean CML conc. (ZDF rats [2]; kidneys of 17-week-old ZDF rats): 55%
- mean CML conc. (ZDF rats [2]; kidneys of 37-week-old ZDF rats): 58%
- CML concentration in the heart of 17-week-old ZDF rats (ZDF rats [2]; in words): reduces
- CML concentration in the kidneys of 17-week-old ZDF rats (ZDF rats [2]; in words): reduces
- CML concentration in the kidneys of 37-week-old ZDF rats (ZDF rats [2]; in words): reduces
- Relaxation of aortic rings by acetylcholine ([3]; ACh 10^−5 mol/L after phenylephrine 10^−7 mol/L): 80.89 ± 6.82%
- Relaxation of aortic rings by acetylcholine ([3]; ACh 10^−6 mol/L after phenylephrine 10^−7 mol/L): 76.4 ± 6.38%
- Relaxation of aortic rings by acetylcholine ([3]; ACh 10^−7 mol/L after phenylephrine 10^−7 mol/L): 59.62 ± 6.43%
- Relaxation of aortic rings by acetylcholine ([3]; ACh 10^−8 mol/L after phenylephrine 10^−7 mol/L): 19.9 ± 3.48%
- Endothelial dysfunction and atherogenic changes in the blood vessels ([3]; atherogenic rabbit model, in words): both prevented and reversed
- Armanni-Ebstein cells GRADE 2: number of animals (fat ZDF rats; [7]): 5
- Armanni-Ebstein cells GRADE 3: number of animals (fat ZDF rats; [7]): 3
- Armanni-Ebstein cells MEAN SEVERITY (fat ZDF rats; [7]): 2.4
- Atrophy: renal tubule GRADE 1: number of animals (fat ZDF rats; [7]): 1
- Atrophy: renal tubule GRADE 3: number of animals (fat ZDF rats; [7]): 1
- Atrophy: renal tubule MEAN SEVERITY (fat ZDF rats; [7]): 2.0
- Casts: renal tubule GRADE 1: number of animals (fat ZDF rats; [7]): 2
- Casts: renal tubule GRADE 2: number of animals (fat ZDF rats; [7]): 1
- Casts: renal tubule MEAN SEVERITY (fat ZDF rats; [7]): 1.3
- Glomerulosclerosis GRADE 1: number of animals (fat ZDF rats; [7]): 1
- Glomerulosclerosis GRADE 3: number of animals (fat ZDF rats; [7]): 1
- Glomerulosclerosis MEAN SEVERITY (fat ZDF rats; [7]): 1.0
- Armanni-Ebstein cells: number of animals with finding (total affected) (fat ZDF rats; [8]): 8
- Atrophy: renal tubule: number of animals with finding (total affected) (fat ZDF rats; [8]): 2
- Casts: renal tubule: number of animals with finding (total affected) (fat ZDF rats; [8]): 3
- Glomerulosclerosis: number of animals with finding (total affected) (fat ZDF rats; [8]): 1
- Atrophy: renal tubule: number of animals with finding (total affected) (fat ZDF rats; [9]): low incidences
- Casts: renal tubule: number of animals with finding (total affected) (fat ZDF rats; [9]): low incidences
- Glomerulosclerosis: number of animals with finding (total affected) (fat ZDF rats; [9]): not present
- Albumin/Creatinine (ZDF rats [4]; 6 weeks treatment): 135.08 mg/mmol
- Albumin/Creatinine (ZDF rats [4]; 12 weeks treatment): 100.86 mg/mmol
- Albumin/Creatinine (ZDF rats [4]; Basal): 1330.99 mg/mmol
- HbA1c values compared to the untreated ZDF rats ([5]; 17-week-old ZDF rats, in words): significantly lower
- HbA1c, mean [5, 10]: 5.69%
- HbA1c, mean [5, 11]: 8.24%
- HbA1c value compared with the ACE inhibitor ramipril ([5]; in words): lower values
- Blood glucose concentration compared to the untreated ZDF rats ([6]; 17-week-old ZDF rats, in words): significantly lower
- blood glucose, mean [6, 10]: 10.67 mM
- blood glucose, mean [6, 11]: 21.09 mM
- Blood glucose value compared with the ACE inhibitor ramipril ([6]; in words): lower values
